Source: US20030232743A1, “Compositions and methods for darkening the skin” (priority 2002, published 2003)

Test system: Type IV pigmented epidermal equivalents (SkinEthic reconstructed human epidermis; normal human keratinocytes and melanocytes)
Assay: Darkening in pigmented epidermal equivalents (DOPA and Fontana-Mason staining)
Format: cell-based
Design: key to Score DOPA staining (tyrosinase activity): 0: No change in DOPA staining and in melanin deposition; 1: Minimal increase in DOPA staining and/ or in pigment deposition; 2: Increased DOPA staining and/ or in pigment deposition; 3: Strong increase in DOPA staining and/ or in pigment deposition
Settings: for Score F & M staining (Pigment deposition) / Score DOPA staining (tyrosinase activity): peptides at 100 μM in PBS, treated three or five days, harvested fourth or sixth day; for Score F & M staining (Pigment deposition): sectioned equivalents F&M stained; for Score DOPA staining (tyrosinase activity): whole equivalents DOPA stained; for Overall change of pigmentation (darkening), in words: peptides at 100 μM, compared with UVB irradiation (0.10 J/cm^2)
Description: Peptide 1 and Peptide 2 were tested for their ability to induce darkening in pigmented epidermal equivalents. The pigmented epidermal equivalents contain human normal melanocytes, together with normal, human-derived epidermal keratinocytes, which have been cultured to form a multi-layered, highly differentiated model of the human epidermis. Type IV pigmented epidermal equivalents (consists of normal human keratinocytes pooled from variety of phototype skins and normal human melanocytes derived from type IV phototype skin) were treated with test compounds for three or five days and samples were harvested on the fourth or sixth day of the study. The harvested equivalents were stained with DOPA (a substrate for tyrosinase) or with Fontana-Mason (F&M) (Sheenan D C, Hrapckak B B, eds: Theory and practice of Histo-Thchnology (St Louis: C V Mosby, 1980) pp 223-277). F&M staining identifies silver nitrate reducing activity, which, in skin, identifies melanin.
The Epidermal equivalents used were SkinEthic® reconstructed human epidermis from SkinEthic™ Laboratory (Nice, France). UV irradiation was performed with a UVB FS light source in an exposure chamber, with plate covers removed and Phosphate—buffered saline (PBS, from Gibco-BRL, Gaithersburg, Md.) present in the lower chamber. UVB intensity was measured with a UVX radiometer (UVP Inc., San Gabriel, Calif.). Equivalents were treated with 0.1-0.12 J/cm2. […] The peptides were assayed at 100 μM, and were dissolved in PBS.
On the fourth or sixth day of the study, the equivalents were fixed, sectioned and F&M stained, or they were DOPA stained as whole without sectioning, using standard techniques. Images of stained whole or sectioned equivalents were obtained and analyzed with Image Pro Plus 3.0 software (Media Cybernetics, Silver Spring, Md.). Parameters measured were surface area of stained material within melanocyte and keratinocyte and the total surface area of the cells in culture. In all experiments there was no difference between PBS-treated cells and untreated controls. At least three sections per equivalent, three equivalents per experiment were processed. DOPA-stained epidermal equivalents were evaluated for the change in tyrosinase activity. F&M-stained histological sections were evaluated for the change in pigment deposition. Due to the low content of melanin within the equivalent, it was not possible to quantify the level of pigment within melanocytes in F&M stained sections by image analysis. Therefore, we evaluate the pigment change using the scale defined in Table 1.

Row | Structure (SMILES) | Score F & M staining (Pigment deposition) | Score DOPA staining (tyrosinase activity) | Overall change of pigmentation (darkening), in words
1 | COc1ccc(CN[C@@H](CCCN/C(N)=N/[N+](=O)[O-])C(=O)N[C@@H](CC(C)C)C(N)=O)cc1 [Peptide 1] | 1-2 | 3 | darkening levels similar to those produced by UVB irradiation
2 | CC(C)C[C@H](NC(=O)[C@H](CCCN/C(N)=N/[N+](=O)[O-])NCc1ccc(OC(F)(F)F)cc1)C(N)=O [Peptide 2] | 1-2 | 1-2 | able to enhance pigment production
